Measurements: patent publication US11878965B2, “Inhibitors of peptidylarginine deiminases” (Gilead Sciences, Inc., priority 2020, dated 2024)

Molecular target: human PAD4 (Homo sapiens (Human), UniProt Q9UM07)
Assay: In Vitro PAD4 BAEE Biochemical Assay
Conditions: geometric mean of multiple experiments
Procedure: The PCR product was ligated into linearized pET-SUMO vector (Invitrogen, Carlsbad, CA), which is part of the Champion™ pET SUMO Protein Expression System. After sequence verification for the correct orientation, the pET-SUMO-hPAD4 expression plasmid was transformed into BL21(DE3) cells.
E. Coli BL21(DE3) cells were inoculated in LB medium with kanamycin at 37° C. until A600 nm reached about 0.5. Protein expression was induced by addition of 0.5 mM IPTG (final) and continued overnight at 16° C. at 220 rpm.
Cells were harvested by centrifugation at 5000 rpm for 10 minutes at 4° C. The pellet was resuspended in 300 ml lysis buffer (20 mM Tris-HCl, pH 8.0, 1 mM EDTA, 500 mM NaCl, 1 mM (tris(2-carboxyethyl)phosphine) (TCEP), 10% glycerol, and 1% Triton X100 and EDTA free protease inhibitor) and lysed by 3× passage through a microfluidizer (Microfluidics, Newton, MA) at 18,000 psi. The cell lysate was clarified by centrifugation at 30,000 rpm for 60 minutes at 4° C. The supernatant was applied to a 5 ml Ni-HP (GE HealthCare Cat #17524701) column preequilibrated in Ni-A buffer (20 mM Tris-HCl, pH 8.0, 20 mM Imidazole, 1 mM TCEP, 10% glycerol, and 400 mM NaCl). Bound protein was eluted with a 0-100% linear gradient of 100 mL Ni-B buffer (Ni A buffer+0.5 M Imidazole).
The His-Sumo tag was cleaved using sumo protease (Thermo Fisher Cat #: 12588018) while dialyzing in buffer (20 mM Tris-HCl, pH 8.0, 1 mM EDTA, 500 mM NaCl, 1 mM TCEP, 10% glycerol). The protein was then reloaded onto a Ni-HP column for a reverse purification step and recovered in flow through fraction. The protein with His-Sumo tag removed was then polished using a 16/60 Superdex-200 gel filtration column with gel filtration buffer (20 mM Tris pH 8.0, NaCl 400 mM and 1 mM TCEP). The fractions containing the protein were pulled and frozen at −80° C.
In Vitro PAD4 BAEE Biochemical Assay
The enzymatic activity of human PAD4 was monitored in a biochemical assay in the presence or absence of compounds using the small peptidyl arginine mimic BAEE (Nα-Benzoyl-L-arginine ethyl ester hydrochloride) as substrate. PAD4 activity led to deimination of BAEE and release of ammonia. Levels of ammonia were monitored by using an amine coupling reaction and were indicative of PAD4 enzymatic activity.
One hundred nanoliters of test compounds dissolved in DMSO at various concentrations were dispensed into a 384-well black OptiPlate using a Labcyte Echo instrument. Ten microliters of a solution of recombinant PAD4 and calcium chloride diluted in PAD4 assay buffer (50 mM MOPS [3-(N-morpholino) propanesulfonic acid], pH 7.6; 50 mM sodium chloride; 0.05% Tween-20; 2 mM dithiothreitol) was added to the compound-containing plate and was incubated for 30 minutes at 25° C. Ten microliters of a solution of BAEE (Sigma-Aldrich #B4500) diluted in PAD4 assay buffer was then added to start the reaction. Final concentrations were 5 nM PAD4, 2 mM calcium chloride, and 3 mM BAEE. The reaction mixture was incubated at 25° C. for 2 hours and was stopped with the addition of 10 microliters of a solution of 75 mM EDTA (Ethylenediaminetetraacetic acid) in PAD4 assay buffer. Thirty microliters of detection solution (5 mM o-phthalaldehyde, 50 mM MOPS [3-(N-morpholino) propanesulfonic acid], pH 7.6; 50 mM sodium chloride; 0.05% Tween-20; 5 mM dithiothreitol) was then added and the reaction was incubated for 1 hour at 25° C. The level of fluorescent thiol-substituted isoindole resulting from the reaction of ammonia, o-phthalaldehyde, and dithiothreitol was measured on an Envision plate reader (PerkinElmer) with 405 nm excitation and 535 nm emission.

[1] = human PAD4, BAEE substrate, 5 nM PAD4, 2 mM calcium chloride, 3 mM BAEE
[2] = recombinant PAD4 5 nM, 2 mM calcium chloride, 3 mM BAEE substrate

human PAD4, sequence (Q9UM07 2-663): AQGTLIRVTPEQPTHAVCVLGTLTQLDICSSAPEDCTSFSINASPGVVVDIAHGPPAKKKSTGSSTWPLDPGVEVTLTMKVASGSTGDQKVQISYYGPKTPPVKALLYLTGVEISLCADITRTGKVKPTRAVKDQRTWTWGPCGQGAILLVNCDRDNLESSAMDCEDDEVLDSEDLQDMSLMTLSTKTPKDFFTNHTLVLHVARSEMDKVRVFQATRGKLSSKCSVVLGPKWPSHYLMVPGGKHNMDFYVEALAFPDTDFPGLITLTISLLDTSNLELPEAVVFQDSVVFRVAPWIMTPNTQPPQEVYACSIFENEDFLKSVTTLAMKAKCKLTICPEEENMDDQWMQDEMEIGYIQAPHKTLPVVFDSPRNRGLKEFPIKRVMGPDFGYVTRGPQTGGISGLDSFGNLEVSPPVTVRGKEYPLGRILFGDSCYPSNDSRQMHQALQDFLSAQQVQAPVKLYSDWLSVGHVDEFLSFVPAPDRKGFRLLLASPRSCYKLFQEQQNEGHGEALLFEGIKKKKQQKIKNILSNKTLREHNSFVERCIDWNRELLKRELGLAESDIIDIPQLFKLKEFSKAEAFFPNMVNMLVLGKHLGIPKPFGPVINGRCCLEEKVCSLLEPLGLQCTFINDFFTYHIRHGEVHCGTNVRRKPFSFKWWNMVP

Structure (SMILES) | IC50 [1] | IC50 [2]
COc1cc(C(=O)N2C[C@H](N)[C@@H]3CC[C@H]2C3)cc2nc(-c3cc4ccc([C@@H](C)NC(=O)C56CC(F)(C5)C6)nc4n3CC3CC3)n(C)c12 [Example 223, N-[(1R)-1-[2-[5-[(1S,4R,5R)-4-amino-2-azabicyclo[3.2.1]octane-2-carbonyl]-7-methoxy-1-methyl-benzimidazol-2-yl]-1-(cyclopropylmethyl)pyrrolo[2,3-b]pyridin-6-yl]ethyl]-3-fluorobicyclo[1.1.1]pentane-1-carboxamide] | 57.2 nM | –
COc1cc(C(=O)N2C[C@H](N)[C@@H]3CC[C@H]2C3)cc2nc(-c3cc4ccc([C@@H](C)NC(=O)c5c(F)cccc5F)nc4n3CC3CC3)n(C)c12 [Example 295, N-((R)-1-(2-(5-((1S,4R,5R)-4-amino-2-azabicyclo[3.2.1]octane-2-carbonyl)-7-methoxy-1-methyl-1H-benzo[d]imidazol-2-yl)-1-(cyclopropylmethyl)-1H-pyrrolo[2,3-b]pyridin-6-yl)ethyl)-2,6-difluorobenzamide] | – | 65.5 nM
CCN(c1ccc2cc(-c3nc4cc(C(=O)N5CCC[C@@H](N)[C@H]5C)cc(OC)c4n3C)n(CC3CC3)c2n1)S(C)(=O)=O [Example 28, N-(2-(5-((2R,3R)-3-amino-2-methylpiperidine-1-carbonyl)-7-methoxy-1-methyl-1H-benzo[d]imidazol-2-yl)-1-(cyclopropylmethyl)-1H-pyrrolo [2,3-b]pyridin-6-yl)-N-ethylmethanesulfonamide] | 98.6 nM | –
COc1cc(C(=O)N2[C@H]3CC[C@@H]2[C@H](N)C3)cc2nc(-c3cc4ccc([C@@H](C)NC(=O)C56CC(C#N)(C5)C6)cc4n3CC3CC3)n(C)c12 [Example 134, N-((R)-1-(2-(5-((1R,2R,4S)-2-amino-7-azabicyclo[2.2.1]heptane-7-carbonyl)-7-methoxy-1-methyl-1H-benzo[d]imidazol-2-yl)-1-(cyclopropylmethyl)-1H-indol-6-yl)ethyl)-3-cyanobicyclo[1.1.1]pentane-1-carboxamide] | 18.2 nM | –
COc1cc(C(=O)N2[C@H]3CC[C@@H]2[C@H](N)C3)cc2nc(-c3cc4ccc([C@@H](C)NC(=O)c5ccccc5)nc4n3CC3CC3)n(C3CC3)c12 [Example 129, N-((R)-1-(2-(5-((1R,2R,4S)-2-amino-7-azabicyclo[2.2.1]heptane-7-carbonyl)-1-cyclopropyl-7-methoxy-1H-benzo[d]imidazol-2-yl)-1-(cyclopropylmethyl)-1H-pyrrolo[2,3-b]pyridin-6-yl)ethyl)benzamide] | 86 nM | –
COc1cc(C(=O)N2C[C@H](N)CCN2C)cc2nc(-c3cc4ccc([C@@H](C)NC(=O)c5cnn(C(F)F)c5)nc4n3CC3CC3)n(C)c12 [Example 170, N-((R)-1-(2-(5-((R)-5-amino-2-methylhexahydropyridazine-1-carbonyl)-7-methoxy-1-methyl-1H-benzo[d]imidazol-2-yl)-1-(cyclopropylmethyl)-1H-pyrrolo[2,3-b]pyridin-6-yl)ethyl)-1-(difluoromethyl)-1H-pyrazole-4-carboxamide] | 67.1 nM | –
COc1cc(C(=O)N2C[C@H](N)CCN2C)cc2nc(-c3cc4ccc([C@@H](C)NC(=O)c5nc(C)cc(C(F)(F)F)n5)nc4n3CC3CC3)n(C)c12 [Example 183, N-((R)-1-(2-(5-((R)-5-amino-2-methylhexahydropyridazine-1-carbonyl)-7-methoxy-1-methyl-1H-benzo[d]imidazol-2-yl)-1-(cyclopropylmethyl)-1H-pyrrolo[2,3-b]pyridin-6-yl)ethyl)-4-methyl-6-(trifluoromethyl)pyrimidine-2-carboxamide] | 198 nM | –
COc1cc(C(=O)N2C[C@H](N)CCN2C)cc2nc(-c3cc4ccc([C@@H](C)NC(=O)C56CC(C)(C5)C6)nc4n3CC3CC3)n(C)c12 [Example 187, N-((R)-1-(2-(5-((R)-5-amino-2-methylhexahydropyridazine-1-carbonyl)-7-methoxy-1-methyl-1H-benzo[d]imidazol-2-yl)-1-(cyclopropylmethyl)-1H-pyrrolo[2,3-b]pyridin-6-yl)ethyl)-3-methylbicyclo[1.1.1]pentane-1-carboxamide] | 96.9 nM | –
COc1cc(C(=O)N[C@@H]2CCNC2)cc2nc(-c3cc4ccc(N(C(F)F)S(C)(=O)=O)nc4n3CC3CC3)n(C)c12 [Example 72, (R)-2-(1-(cyclopropylmethyl)-6-((N-(difluoromethyl)methyl)sulfonamido)-1H-pyrrolo[2,3-b]pyridin-2-yl)-7-methoxy-1-methyl-N-(pyrrolidin-3-yl)-1H-benzo[d] imidazole-5-carboxamide] | 20900 nM | –
COc1cc(C(=O)N2C[C@H](N)CCN2C)cc2nc(-c3cc4ccc([C@@H](C)NC(=O)c5c(C)ccnc5C)nc4n3CC3CC3)n(C)c12 [Example 178, N-((R)-1-(2-(5-((R)-5-amino-2-methylhexahydropyridazine-1-carbonyl)-7-methoxy-1-methyl-1H-benzo[d]imidazol-2-yl)-1-(cyclopropylmethyl)-1H-pyrrolo[2,3-b]pyridin-6-yl)ethyl)-2,4-dimethylnicotinamide] | 80.4 nM | –
COc1cc(C(=O)N2[C@H]3CC[C@@H]2[C@H](N)C3)cc2nc(-c3cc4ccc([C@@H](C)NC(=O)C(C)(C)C)nc4n3CC3CC3)n(C)c12 [Example 120, N—((R)-1-(2-(5-((1R,2R,4S)-2-amino-7-azabicyclo[2.2.1]heptane-7-carbonyl)-7-methoxy-1-methyl-1H-benzo[d]imidazol-2-yl)-1-(cyclopropylmethyl)-1H-pyrrolo[2,3-b]pyridin-6-yl)ethyl)pivalamide] | 60.6 nM | –
C[C@@H](NC(=O)C12CC(F)(C1)C2)c1ccc2cc(-c3nc4cc(C(=O)N5C[C@H](N)[C@@H]6CC[C@H]5C6)cc(F)c4n3C3CC3)n(CC3CC3)c2n1 [Example 219, N-((R)-1-(2-(5-((1S,4R,5R)-4-amino-2-azabicyclo[3.2.1]octane-2-carbonyl)-1-cyclopropyl-7-fluoro-1H-benzo[d]imidazol-2-yl)-1-(cyclopropylmethyl)-1H-pyrrolo[2,3-b]pyridin-6-yl)ethyl)-3-fluorobicyclo[1.1.1]pentane-1-carboxamide] | – | 78.6 nM
COc1cc(C(=O)N2C[C@H](N)CCN2C)cc2nc(-c3cc4ccc([C@@H](C)NC(=O)C56CC(C5)C6)nc4n3CC3CC3)n(C)c12 [Example 185, N-((R)-1-(2-(5-((R)-5-amino-2-methylhexahydropyridazine-1-carbonyl)-7-methoxy-1-methyl-1H-benzo[d]imidazol-2-yl)-1-(cyclopropylmethyl)-1H-pyrrolo[2,3-b]pyridin-6-yl)ethyl)bicyclo[1.1.1]pentane-1-carboxamide] | 82.1 nM | –
COc1cc(C(=O)N2CCC[C@@H](N)C2)cc2nc(-c3cc4ccc(N(C(F)F)S(C)(=O)=O)nc4n3CC3CC3)n(C)c12 [Example 18, (R)-N-(2-(5-(3-aminopiperidine-1-carbonyl)-7-methoxy-1-methyl-1H-benzo[d]imidazol-2-yl)-1-(cyclopropylmethyl)-1H-pyrrolo[2,3-b]pyridin-6-yl)-N-(difluoromethyl) methanesulfonamide] | 83 nM | –
COc1cc(C(=O)N2[C@H]3CC[C@@H]2[C@H](N)C3)cc2nc(-c3cc4ccc([C@@H](C)NC(=O)C56CC(F)(C5)C6)cc4n3CC3CC3)n(C)c12 [Example 133, N-((R)-1-(2-(5-((1R,2R,4S)-2-amino-7-azabicyclo[2.2.1]heptane-7-carbonyl)-7-methoxy-1-methyl-1H-benzo[d]imidazol-2-yl)-1-(cyclopropylmethyl)-1H-indol-6-yl)ethyl)-3-fluorobicyclo[1.1.1]pentane-1-carboxamide] | 32.2 nM | –
